Measured values as given in PMC9056166 (RSC Advances, 2020).
Entries after “also recorded” stand apart in the source; their conditions may differ. Marks after values point to notes of the source that are not given here.

Assays:
PDE5 = PDE5 (Homo sapiens, UniProt O76074); experiment: Phosphodiesterase 5 enzyme activity assay; format: biochemical; details: for inhibition at 10 µM: read-out: PDE5 activity, decrease (↓, inhibition); for effect on PDE5 activity (in words): 10 μM; for PDE5 activity, increase (↑, enhancement): 10 μM compound
[1] = format: in vivo, White New Zealand rabbits; details: normotensive rabbits; for MABP: mean arterial blood pressure, i.v. (jugular vein), means ± SE, n = 4
ovine COX-1 = target: T1, ovine COX-1 (Ovis aries, UniProt P05979); experiment: In vitro COX-1 inhibition, enzyme immunoassay; format: biochemical
T1 sequence (P05979 25-600): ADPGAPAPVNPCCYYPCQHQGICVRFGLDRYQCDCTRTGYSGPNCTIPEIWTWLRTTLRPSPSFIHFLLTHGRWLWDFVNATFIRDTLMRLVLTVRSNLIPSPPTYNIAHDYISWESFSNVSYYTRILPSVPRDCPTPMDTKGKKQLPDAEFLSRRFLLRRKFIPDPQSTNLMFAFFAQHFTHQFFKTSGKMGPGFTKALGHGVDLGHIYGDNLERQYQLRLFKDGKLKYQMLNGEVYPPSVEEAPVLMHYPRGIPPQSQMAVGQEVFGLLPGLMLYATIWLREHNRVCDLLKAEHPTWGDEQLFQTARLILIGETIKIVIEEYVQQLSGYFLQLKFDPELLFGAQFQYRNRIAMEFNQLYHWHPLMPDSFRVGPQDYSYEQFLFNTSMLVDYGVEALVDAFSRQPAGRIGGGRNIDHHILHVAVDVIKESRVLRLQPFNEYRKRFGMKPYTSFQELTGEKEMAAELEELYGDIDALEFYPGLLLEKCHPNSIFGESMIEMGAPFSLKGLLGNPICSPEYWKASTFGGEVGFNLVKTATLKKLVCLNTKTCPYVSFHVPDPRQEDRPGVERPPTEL

human recombinant COX-2 = target: T2, human recombinant COX-2 (Homo sapiens, UniProt P35354); experiment: In vitro COX-2 inhibition, enzyme immunoassay; format: biochemical; details: for COX-2 S.I. (COX-1/COX-2): IC50 (COX-1)/IC50 (COX-2)
T2 sequence (P35354 18-604): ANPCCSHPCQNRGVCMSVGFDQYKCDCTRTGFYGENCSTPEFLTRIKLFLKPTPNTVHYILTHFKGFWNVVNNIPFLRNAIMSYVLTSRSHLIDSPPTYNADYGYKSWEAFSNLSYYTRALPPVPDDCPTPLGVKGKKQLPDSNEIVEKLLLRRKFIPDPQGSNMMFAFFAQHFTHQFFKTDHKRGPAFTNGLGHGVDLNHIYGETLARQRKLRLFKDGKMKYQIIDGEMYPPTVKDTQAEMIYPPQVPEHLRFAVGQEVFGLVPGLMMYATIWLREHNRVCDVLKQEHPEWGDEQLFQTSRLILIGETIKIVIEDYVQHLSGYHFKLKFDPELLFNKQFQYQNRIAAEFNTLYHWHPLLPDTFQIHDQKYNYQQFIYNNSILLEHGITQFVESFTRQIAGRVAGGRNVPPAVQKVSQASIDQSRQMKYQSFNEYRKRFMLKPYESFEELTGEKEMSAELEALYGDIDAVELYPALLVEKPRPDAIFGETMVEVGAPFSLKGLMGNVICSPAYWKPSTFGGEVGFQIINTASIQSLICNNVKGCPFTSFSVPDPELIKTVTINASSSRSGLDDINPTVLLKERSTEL

Structure (SMILES)	inhibition at 10 µM (PDE5) [%]	MABP [1]	MABP compared with control (in words) [1]	MABP compared with sildenafil (in words) [1]	IC50 (ovine COX-1) [nM]	IC50 (human recombinant COX-2) [nM]	COX-2 S.I. (COX-1/COX-2) (human recombinant COX-2)	effect on PDE5 activity (in words) (PDE5)	PDE5 activity, increase (↑, enhancement) (PDE5) [%]
Cc1cc(O)n(-c2nccs2)n1 [Compound 7, 3-methyl-1-(thiazol-2-yl)-1H-pyrazol-5-ol]	75	81^#	significantly lower than that of the control	insignificantly higher than the sildenafil one	6340	630	10.06	–	–
C/C(=C/C(=O)Nc1nccs1)Nc1ccc(Cl)cc1 [Compound 23c, (Z)-3-((4-chlorophenyl)amino)-N-(thiazol-2-yl)but-2-enamide]	100	100	without causing hypotension; also recorded: higher than the control values in a nonsignificant manner	–	6330	610	10.38	–	–
CCOC(=O)c1c(C)[nH]c(C(=O)Nc2nccs2)c1C [Compound 5a, Ethyl 2,4-dimethyl-5-(thiazol-2-ylcarbamoyl)-1H-pyrrole-3-carboxylate]	–	108^##	significantly higher	–	1600	100	16	increased the PDE5 activity	222
CC(=O)C(C(C)=O)C(=O)Nc1nccs1 [Compound 17, 2-acetyl-3-oxo-N-(thiazol-2-yl)butanamide]	–	87^&	insignificantly lower than the control values	significantly higher than the sildenafil values	1400	90	15.56	increased the PDE5 activity	371
CCCc1nn(C)c2c(=O)[nH]c(-c3cc(S(=O)(=O)N4CCN(C)CC4)ccc3OCC)nc12 [Sildenafil, sildenafil, reference compound]	100	72.50 ± 2.9	–	–	–	–	–	–	–
CCOC(=O)CCC(=O)Nc1nccs1 [Compound 11, ethyl 4-oxo-4-(thiazol-2-ylamino)butanoate]	–	85^&	insignificantly lower than the control values	significantly higher than the sildenafil values	1700	210	8.1	very low activity	3.5
CC(=O)C(=NO)C(=O)Nc1nccs1 [Compound 2, 2-(hydroxyimino)-3-oxo-N-(thiazol-2-yl)butanamide]	53	115^##	significantly higher	–	1500	110	13.64	–	–
CC(=O)c1c(C)[nH]c(C(=O)Nc2nccs2)c1C [Compound 5b, 4-Acetyl-3,5-dimethyl-N-(thiazol-2-yl)-1H-pyrrole-2-carboxamide]	–	98	higher than the control values in a nonsignificant manner	–	1300	240	5.4	very low activity	15
C/C(=C/C(=O)Nc1nccs1)Nc1ccccc1 [Compound 23a, (Z)-3-(phenylamino)-N-(thiazol-2-yl)but-2-enamide]	100	108	without causing hypotension; also recorded: higher than the control values in a nonsignificant manner; also recorded: without a notable decrease in MABP	–	6300	710	8.87	–	–
COc1ccc(N/C(C)=C\C(=O)Nc2nccs2)cc1 [Compound 23b, (Z)-3-((4-methoxyphenyl)amino)-N-(thiazol-2-yl)but-2-en-amide]	100	110^##	significantly higher; also recorded: without a notable decrease in MABP	–	5740	560	10.25	increased the PDE5 activity; also recorded: very low activity	15
